Reference: US11981919B2, “Methods for forming three-dimensional human retinal tissue in vitro” (THE JOHNS HOPKINS UNIVERSITY, priority 2014, dated 2024)

Experiments:
[1] = tested on: CB-iPSC6.2-derived retinal cups (RCs); assay: Retinoic acid treatment of hiPSC-derived retinal cups, rod-opsin expression by immunohistochemistry; type: cell-based, human; details: for rod-opsin expression (qualitative, microscopic observation): 3 independent experiments
Procedure: (§1) To promote photoreceptor maturation, suspension cultures of RCs were supplemented daily with 1 μM all-trans retinoic acid (RA; Sigma) at various time windows: W7-W17; W7-W14 or W10-W14; subsequently, RA concentration was decreased to 0.5 μM.
(§2) RCs were fixed in 4% PFA for 30 min. […] DAPI was used for nuclear counterstaining (Molecular Probes).

[2] = tested on: KA.1- and IMR90-4-derived RCs; assay: as above; type: cell-based, human; details: RA treatment in W10-W14
Procedure: as §1, §2

CC1=C(/C=C/C(C)=C/C=C/C(C)=C/C(=O)O)C(C)(C)CCC1 [retinoic acid, all-trans retinoic acid]
rod-opsin expression (qualitative, microscopic observation) ([1]; 1 μM RA during W10-W14, W17 and W21): dispersed cells with strong rod-opsin expression in their cell bodies already at W17
rod-opsin expression (qualitative, microscopic observation) ([1]; 1 μM RA in W7-W14): low levels of rod-opsin expression in the distal part of photoreceptor cells
retinal cups showing dispersed cells with higher rod-opsin expression, also in cell bodies ([1]; 1 μM retinoic acid W10-W14, evaluated at W17, n=8): ~50%
retinal cups showing a significant increase in the number of photoreceptors expressing rod opsin ([1]; 1 μM retinoic acid W10-W14, evaluated by W21, n=20): 90%
rod-opsin expression (qualitative, microscopic observation) [2]: induction of rod-opsin expression was also observed, although at a later time and less efficiently than in CB-iPSC6.2-derived RCs
